According to ChEMBL document CHEMBL1201862, “PubChem BioAssay data set” (2004):
Calls of active or inactive are those of the source.

How the values were obtained:
[1] = target: 72 kDa type IV collagenase (Homo sapiens, UniProt P08253); assay: Dose Response validation of uHTS RPN11 inhibitor hits using a MMP-2 Fluorescence assay.; format: functional
[2] = target: 26S proteasome non-ATPase regulatory subunit 14 (Homo sapiens, UniProt O00487); assay: inhibition of proteasome subunit RPN11 – biochemical, fluorescence polarization, uHTS hits, confirmation (AID 602368); format: functional
[3] = target: Prothrombin (Bos taurus, UniProt P00735); assay: thrombin protease inhibitors – biochemical, fluorescence polarization, uHTS hits, dose response (AID 602369); format: functional
[4] = non-specific 3'UTR reporter inhibition in Clone20-Shn3RL – cell-based, Renilla luciferase, cherry-picked, counter-screen for Shn3 inhibitor project, dose response (AID 624133); format: functional
[5] = target: Protein Wnt-3a (Mus musculus, UniProt P27467); assay: antagonism of Wnt3a pathway luciferase reporter – Wnt-LIGHT cells, luminescence, selectivity assay for Gli-SUFU antagonist project, dose response (AID 651570); format: functional; settings: read-out: IC50_Mean;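 further: Wnt-LIGHT reporter cells stimulated with conditioned medium from Wnt3a-producing cells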
[6] = reduction of Shn3 3'UTR-driven luciferase in osteoblasts – cell-based, Clone20 osteoblasts, firefly luciferase, cherry-picked, dose response (AID 624132); format: functional;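 further: firefly luciferase luminescence from reporter carrying the Shn3 3'UTR in osteoblasts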
[7] = target: T1, Sentrin-specific protease 6 (Homo sapiens, UniProt Q9GZR1); format: functional;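 further: Luminescence-based dose-response confirmatory assay of SENP6 inhibition, following up an ultra-high-throughput screen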
T1 sequence (Q9GZR1 whole entry): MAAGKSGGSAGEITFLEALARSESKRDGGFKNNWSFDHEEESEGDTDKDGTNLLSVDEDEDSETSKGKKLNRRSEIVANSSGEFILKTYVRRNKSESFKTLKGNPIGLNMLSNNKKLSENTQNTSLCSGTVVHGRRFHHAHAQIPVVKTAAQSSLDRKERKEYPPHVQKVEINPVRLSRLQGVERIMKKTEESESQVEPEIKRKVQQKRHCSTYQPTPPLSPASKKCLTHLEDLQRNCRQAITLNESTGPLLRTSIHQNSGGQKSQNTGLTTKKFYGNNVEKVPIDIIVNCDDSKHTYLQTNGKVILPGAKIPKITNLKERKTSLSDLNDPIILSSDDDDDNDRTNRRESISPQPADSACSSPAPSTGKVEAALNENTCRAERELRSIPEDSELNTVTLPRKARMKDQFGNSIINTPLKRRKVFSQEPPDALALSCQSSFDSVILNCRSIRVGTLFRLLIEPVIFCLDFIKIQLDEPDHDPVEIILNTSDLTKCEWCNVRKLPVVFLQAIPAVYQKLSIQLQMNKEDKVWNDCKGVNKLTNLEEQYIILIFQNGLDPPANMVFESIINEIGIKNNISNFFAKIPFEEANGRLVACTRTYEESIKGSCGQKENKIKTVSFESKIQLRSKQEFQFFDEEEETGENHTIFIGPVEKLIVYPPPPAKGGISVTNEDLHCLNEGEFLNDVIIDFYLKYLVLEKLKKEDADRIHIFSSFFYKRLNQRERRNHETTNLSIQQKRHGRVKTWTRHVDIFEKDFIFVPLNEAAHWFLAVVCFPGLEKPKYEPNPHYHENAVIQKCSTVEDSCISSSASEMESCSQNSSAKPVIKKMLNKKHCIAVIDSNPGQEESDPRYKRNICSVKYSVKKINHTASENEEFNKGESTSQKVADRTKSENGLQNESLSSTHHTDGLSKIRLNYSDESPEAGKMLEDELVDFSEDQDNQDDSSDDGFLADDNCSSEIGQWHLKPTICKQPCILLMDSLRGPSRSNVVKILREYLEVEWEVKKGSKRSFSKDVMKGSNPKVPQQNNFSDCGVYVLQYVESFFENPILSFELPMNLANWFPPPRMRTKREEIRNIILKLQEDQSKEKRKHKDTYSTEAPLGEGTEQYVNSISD

[8] = target: T2, Caspase-3 (Homo sapiens, UniProt P42574); format: functional;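 further: Dose-response selectivity test against caspase-3 for candidate inhibitors of sentrin-specific proteases (SENPs)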
T2 sequence (P42574 whole entry): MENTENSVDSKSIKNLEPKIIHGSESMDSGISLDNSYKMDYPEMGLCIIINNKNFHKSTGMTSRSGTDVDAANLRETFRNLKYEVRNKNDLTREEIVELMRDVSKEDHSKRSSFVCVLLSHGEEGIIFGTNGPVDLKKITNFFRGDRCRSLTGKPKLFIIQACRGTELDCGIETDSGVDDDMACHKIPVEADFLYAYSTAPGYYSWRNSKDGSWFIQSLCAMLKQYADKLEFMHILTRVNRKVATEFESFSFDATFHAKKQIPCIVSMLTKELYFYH

[9] = target: T3, Sentrin-specific protease 7 (Homo sapiens, UniProt Q9BQF6); format: functional;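 further: Luminescence-based dose-response confirmation of ultra-high-throughput screening hits, measuring inhibition of SENP7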
T3 sequence (Q9BQF6 whole entry): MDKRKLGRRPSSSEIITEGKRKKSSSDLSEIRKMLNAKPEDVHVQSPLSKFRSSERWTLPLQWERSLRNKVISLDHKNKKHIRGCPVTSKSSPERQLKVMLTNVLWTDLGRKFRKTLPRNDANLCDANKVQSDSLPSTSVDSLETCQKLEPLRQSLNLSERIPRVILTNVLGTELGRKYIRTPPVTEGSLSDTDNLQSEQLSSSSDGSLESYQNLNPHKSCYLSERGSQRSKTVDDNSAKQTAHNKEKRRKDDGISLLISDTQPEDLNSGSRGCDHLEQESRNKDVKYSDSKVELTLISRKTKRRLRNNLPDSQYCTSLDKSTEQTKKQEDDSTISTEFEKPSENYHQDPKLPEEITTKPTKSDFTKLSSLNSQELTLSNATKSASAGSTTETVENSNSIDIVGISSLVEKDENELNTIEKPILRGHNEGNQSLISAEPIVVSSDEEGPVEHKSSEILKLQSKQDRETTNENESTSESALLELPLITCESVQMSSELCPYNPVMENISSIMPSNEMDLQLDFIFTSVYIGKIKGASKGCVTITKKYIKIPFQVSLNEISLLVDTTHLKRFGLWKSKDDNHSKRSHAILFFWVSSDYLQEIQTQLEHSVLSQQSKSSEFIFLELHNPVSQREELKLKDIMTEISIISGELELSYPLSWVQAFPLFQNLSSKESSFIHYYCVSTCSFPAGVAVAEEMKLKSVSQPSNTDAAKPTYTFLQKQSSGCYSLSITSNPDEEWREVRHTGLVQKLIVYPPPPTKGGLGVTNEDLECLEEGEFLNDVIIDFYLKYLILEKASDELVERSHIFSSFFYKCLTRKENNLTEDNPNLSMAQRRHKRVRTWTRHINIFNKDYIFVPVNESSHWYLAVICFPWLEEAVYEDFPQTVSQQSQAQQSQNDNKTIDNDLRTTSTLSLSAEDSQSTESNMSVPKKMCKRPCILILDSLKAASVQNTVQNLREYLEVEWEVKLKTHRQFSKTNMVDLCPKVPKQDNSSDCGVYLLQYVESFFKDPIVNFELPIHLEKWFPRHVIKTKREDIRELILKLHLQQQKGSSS

[10] = target: T4, Sentrin-specific protease 8 (Homo sapiens, UniProt Q96LD8); format: functional;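 further: luminescence read-out of SENP8 inhibition, dose-response confirmation following an ultra-high-throughput screen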
T4 sequence (Q96LD8 whole entry): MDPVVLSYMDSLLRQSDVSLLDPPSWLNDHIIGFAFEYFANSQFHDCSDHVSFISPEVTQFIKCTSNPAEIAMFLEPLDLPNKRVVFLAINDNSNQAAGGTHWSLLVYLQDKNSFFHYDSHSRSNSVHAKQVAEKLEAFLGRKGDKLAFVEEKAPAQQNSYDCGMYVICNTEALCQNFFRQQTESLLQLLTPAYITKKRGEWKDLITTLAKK

[11] = target: T5, Probable nicotinate-nucleotide adenylyltransferase (Staphylococcus aureus (strain N315), UniProt P65502); format: functional, Staphylococcus aureus subsp. aureus N315;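 on IC50 Mean: confirmatory dose-response retesting of NadD inhibitor hits first found in an ultra-high-throughput screen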
[12] = target: Induced myeloid leukemia cell differentiation protein Mcl-1 (Homo sapiens, UniProt Q07820); format: functional
[13] = target: T5, Probable nicotinate-nucleotide adenylyltransferase; format: functional, Staphylococcus aureus subsp. aureus N315; settings: read-out: IC50_Mean
[14] = target: T6, Beta-lactamase (Pseudomonas aeruginosa, UniProt Q79MP6); assay: inhibition of IMP-1 beta-lactamase activity – biochemical, epi-absorbance, selectivity assay for VIM-2 inhibitor project, dose response (AID 1920)
[15] = target: T6, Beta-lactamase; assay: […] counterscreen for selective VIM-2 inhibitors: dose response biochemical high throughput screening assay to identify inhibitors of IMP-1 metallo-beta-lactamase.
[16] = target: Beta-lactamase (Salmonella choleraesuis (strain SC-B67), UniProt Q5J463); assay: Epi-absorbance-based counterscreen for selective VIM-2 inhibitors: dose response biochemical high throughput screening assay to identify inhibitors of TEM-1 serine-beta-lactamase.
[17] = target: Cytochrome P450 2C9 (Homo sapiens, UniProt P11712)
[18] = target: Cytochrome P450 2C19 (Homo sapiens, UniProt P33261); assay: Cytochrome panel assay with activity outcomes. Panel member name: p450-cyp2c19 Compounds with AC50 equal or less than 10 uM are considered active; format: functional; settings: read-out: AC50
[19] = target: Cytochrome P450 3A4 (Homo sapiens, UniProt P08684);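 further: CYP3A4 tested as one member of a cytochrome P450 panel screen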
[20] = viability of uninfected HEp-2 cells – cell-based, HTS, cytotoxicity control for RSV inhibitor project, dose response (AID 2410); format: functional; settings: human respiratory syncytial virus
[21] = target: Protein-tyrosine kinase 2-beta (Homo sapiens, UniProt Q14289);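 further: potency of inhibitors of PYK2 kinase phosphorylation of poly-GT substrate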
[22] = target: T7, Adenosylmethionine-8-amino-7-oxononanoate aminotransferase (Mycobacterium tuberculosis, UniProt P9WQ81); assay: Mycobacterium tuberculosis BioA enzyme inhibitor Measured in Biochemical System Using Plate Reader - 2163-02_Inhibitor_Dose_CherryPick_Activity.; format: functional, Mycobacterium tuberculosis UT205
T7 sequence (P9WQ81 whole entry): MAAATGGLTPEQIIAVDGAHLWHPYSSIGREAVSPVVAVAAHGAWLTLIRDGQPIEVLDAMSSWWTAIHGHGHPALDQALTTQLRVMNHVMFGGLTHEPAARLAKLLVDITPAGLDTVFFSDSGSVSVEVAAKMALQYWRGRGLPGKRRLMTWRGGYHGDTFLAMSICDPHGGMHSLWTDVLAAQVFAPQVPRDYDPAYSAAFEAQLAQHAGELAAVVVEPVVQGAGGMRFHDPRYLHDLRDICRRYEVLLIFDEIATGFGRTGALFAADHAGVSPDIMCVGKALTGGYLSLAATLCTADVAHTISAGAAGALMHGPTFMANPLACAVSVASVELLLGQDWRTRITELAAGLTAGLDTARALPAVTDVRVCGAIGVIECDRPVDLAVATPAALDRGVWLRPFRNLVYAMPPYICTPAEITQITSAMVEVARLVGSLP

[23] = loss of viability in HepG2 cells – cell-based, CellTiter-Glo, cherry-picked, cytotoxicity control for Shn3 inhibitor project, dose response (AID 624134); format: functional

Chain of Protein Wnt-3a (P27467 whole entry): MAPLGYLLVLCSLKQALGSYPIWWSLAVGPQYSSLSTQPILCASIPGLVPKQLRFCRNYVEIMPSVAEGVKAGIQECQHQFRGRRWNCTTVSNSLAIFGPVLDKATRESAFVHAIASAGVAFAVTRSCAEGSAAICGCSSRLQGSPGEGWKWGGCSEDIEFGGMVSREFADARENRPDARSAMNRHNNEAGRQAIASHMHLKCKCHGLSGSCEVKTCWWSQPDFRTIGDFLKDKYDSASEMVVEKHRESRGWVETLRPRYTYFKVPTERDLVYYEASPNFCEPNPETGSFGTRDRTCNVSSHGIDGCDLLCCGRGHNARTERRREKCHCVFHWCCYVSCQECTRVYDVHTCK
Chain of Beta-lactamase (Salmonella choleraesuis (strain SC-B67), UniProt Q5J463) (Q5J463 whole entry): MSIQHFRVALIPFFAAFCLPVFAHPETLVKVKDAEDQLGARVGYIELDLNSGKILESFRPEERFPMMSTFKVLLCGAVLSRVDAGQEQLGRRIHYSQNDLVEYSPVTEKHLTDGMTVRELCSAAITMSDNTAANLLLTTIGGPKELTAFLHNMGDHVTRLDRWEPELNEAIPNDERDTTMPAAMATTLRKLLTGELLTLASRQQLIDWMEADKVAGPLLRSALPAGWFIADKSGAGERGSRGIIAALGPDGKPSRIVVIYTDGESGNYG
T5 sequence (P65502 whole entry): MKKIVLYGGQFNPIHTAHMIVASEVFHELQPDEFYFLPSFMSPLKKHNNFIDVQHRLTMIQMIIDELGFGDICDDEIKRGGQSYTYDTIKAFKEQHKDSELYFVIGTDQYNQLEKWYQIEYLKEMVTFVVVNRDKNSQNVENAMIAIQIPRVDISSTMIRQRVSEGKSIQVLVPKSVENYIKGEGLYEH
Chain of 72 kDa type IV collagenase (P08253 whole entry): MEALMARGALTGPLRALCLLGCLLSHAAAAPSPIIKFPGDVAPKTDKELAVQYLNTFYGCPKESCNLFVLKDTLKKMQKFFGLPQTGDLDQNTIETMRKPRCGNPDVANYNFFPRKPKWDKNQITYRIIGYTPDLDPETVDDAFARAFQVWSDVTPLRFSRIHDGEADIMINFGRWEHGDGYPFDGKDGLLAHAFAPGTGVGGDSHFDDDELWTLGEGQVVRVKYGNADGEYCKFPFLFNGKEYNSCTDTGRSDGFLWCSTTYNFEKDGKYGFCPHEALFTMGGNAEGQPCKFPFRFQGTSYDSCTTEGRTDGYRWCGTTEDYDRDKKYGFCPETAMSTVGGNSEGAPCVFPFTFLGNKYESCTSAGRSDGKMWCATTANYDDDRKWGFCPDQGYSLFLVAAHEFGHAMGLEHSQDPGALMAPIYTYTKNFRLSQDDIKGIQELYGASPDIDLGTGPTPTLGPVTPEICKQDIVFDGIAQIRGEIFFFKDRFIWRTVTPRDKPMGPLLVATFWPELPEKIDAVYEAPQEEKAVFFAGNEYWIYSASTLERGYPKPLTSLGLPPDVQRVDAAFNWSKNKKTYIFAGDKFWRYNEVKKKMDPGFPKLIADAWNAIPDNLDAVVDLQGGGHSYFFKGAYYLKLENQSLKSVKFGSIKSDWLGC
Chain of 26S proteasome non-ATPase regulatory subunit 14 (O00487 whole entry): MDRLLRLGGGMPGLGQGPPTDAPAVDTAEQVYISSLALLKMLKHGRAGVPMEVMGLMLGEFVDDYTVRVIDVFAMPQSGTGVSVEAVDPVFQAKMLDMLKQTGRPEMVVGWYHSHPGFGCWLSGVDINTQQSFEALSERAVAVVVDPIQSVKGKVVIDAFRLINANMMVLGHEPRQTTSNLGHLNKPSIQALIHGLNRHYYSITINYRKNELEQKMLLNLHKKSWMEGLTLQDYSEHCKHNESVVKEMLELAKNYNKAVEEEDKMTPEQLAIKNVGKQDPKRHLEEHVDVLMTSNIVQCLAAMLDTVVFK
T6 sequence (Q79MP6 whole entry): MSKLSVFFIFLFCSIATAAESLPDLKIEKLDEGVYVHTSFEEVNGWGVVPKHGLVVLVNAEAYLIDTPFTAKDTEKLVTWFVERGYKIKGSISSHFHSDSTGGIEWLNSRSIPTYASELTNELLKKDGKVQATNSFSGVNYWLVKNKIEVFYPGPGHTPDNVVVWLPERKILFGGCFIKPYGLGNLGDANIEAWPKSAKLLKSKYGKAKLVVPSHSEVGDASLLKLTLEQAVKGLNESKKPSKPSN
Chain of Cytochrome P450 2C9 (P11712 whole entry): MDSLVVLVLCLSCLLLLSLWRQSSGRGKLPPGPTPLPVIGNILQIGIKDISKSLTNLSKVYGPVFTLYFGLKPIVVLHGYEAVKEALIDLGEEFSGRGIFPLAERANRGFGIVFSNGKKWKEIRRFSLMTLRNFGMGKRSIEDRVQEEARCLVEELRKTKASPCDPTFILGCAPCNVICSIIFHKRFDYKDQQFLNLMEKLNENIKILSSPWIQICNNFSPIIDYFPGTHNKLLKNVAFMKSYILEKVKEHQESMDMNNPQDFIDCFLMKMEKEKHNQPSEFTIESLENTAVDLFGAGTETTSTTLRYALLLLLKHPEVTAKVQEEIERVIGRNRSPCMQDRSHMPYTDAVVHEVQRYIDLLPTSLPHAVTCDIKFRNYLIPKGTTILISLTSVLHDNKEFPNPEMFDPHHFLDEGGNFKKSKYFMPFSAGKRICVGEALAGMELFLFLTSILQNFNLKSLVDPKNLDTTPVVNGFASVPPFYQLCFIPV
Chain of Protein-tyrosine kinase 2-beta (Q14289 whole entry): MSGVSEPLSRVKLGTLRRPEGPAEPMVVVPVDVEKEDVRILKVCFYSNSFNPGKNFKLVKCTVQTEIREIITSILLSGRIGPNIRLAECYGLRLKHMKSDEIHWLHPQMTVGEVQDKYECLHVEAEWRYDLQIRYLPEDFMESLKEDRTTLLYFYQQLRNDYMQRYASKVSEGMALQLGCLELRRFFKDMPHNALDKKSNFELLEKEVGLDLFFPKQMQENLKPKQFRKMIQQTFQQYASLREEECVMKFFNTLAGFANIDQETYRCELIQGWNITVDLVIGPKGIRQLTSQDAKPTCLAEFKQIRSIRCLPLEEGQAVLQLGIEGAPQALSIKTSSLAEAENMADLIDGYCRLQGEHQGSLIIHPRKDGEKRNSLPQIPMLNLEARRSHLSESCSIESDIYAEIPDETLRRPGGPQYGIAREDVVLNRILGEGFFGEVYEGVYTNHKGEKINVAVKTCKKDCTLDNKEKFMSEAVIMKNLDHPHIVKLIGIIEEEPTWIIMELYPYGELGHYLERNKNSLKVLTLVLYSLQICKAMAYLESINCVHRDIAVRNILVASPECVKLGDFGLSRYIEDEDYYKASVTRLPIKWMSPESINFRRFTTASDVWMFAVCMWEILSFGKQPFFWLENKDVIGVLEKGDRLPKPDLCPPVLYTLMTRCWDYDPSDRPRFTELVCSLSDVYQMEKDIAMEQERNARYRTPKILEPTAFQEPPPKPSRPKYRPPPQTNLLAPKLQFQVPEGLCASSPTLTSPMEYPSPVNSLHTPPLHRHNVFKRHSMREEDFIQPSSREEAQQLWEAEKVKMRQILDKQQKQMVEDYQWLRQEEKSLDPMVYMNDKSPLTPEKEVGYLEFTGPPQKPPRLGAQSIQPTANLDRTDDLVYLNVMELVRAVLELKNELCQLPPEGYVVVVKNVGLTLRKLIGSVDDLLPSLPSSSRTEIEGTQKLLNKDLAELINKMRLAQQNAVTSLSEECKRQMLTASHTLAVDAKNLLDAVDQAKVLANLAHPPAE
Chain of Induced myeloid leukemia cell differentiation protein Mcl-1 (Q07820 whole entry): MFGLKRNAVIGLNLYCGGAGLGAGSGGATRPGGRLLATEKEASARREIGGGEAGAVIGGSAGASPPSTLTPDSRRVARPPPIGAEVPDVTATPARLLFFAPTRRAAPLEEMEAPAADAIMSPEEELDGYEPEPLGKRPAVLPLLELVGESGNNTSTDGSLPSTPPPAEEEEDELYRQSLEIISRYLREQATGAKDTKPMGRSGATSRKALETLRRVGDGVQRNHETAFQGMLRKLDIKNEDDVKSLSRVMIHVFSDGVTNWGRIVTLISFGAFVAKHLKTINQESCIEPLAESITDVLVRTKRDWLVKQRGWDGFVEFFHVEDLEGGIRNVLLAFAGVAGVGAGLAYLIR
Chain of Cytochrome P450 3A4 (P08684 whole entry): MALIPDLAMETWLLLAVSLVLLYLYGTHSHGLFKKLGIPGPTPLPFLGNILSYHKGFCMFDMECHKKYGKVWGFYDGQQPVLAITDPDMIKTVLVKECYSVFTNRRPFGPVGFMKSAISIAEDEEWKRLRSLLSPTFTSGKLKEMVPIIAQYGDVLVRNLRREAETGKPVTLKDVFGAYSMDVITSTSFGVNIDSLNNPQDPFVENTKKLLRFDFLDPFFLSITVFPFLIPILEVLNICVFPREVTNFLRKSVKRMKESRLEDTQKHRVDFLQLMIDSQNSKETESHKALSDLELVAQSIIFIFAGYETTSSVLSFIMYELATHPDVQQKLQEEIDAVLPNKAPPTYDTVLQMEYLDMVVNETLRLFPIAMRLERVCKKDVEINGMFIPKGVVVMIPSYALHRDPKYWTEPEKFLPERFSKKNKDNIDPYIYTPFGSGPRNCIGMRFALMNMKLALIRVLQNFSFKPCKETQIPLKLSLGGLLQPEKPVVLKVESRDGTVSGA
Chain of Cytochrome P450 2C19 (P33261 whole entry): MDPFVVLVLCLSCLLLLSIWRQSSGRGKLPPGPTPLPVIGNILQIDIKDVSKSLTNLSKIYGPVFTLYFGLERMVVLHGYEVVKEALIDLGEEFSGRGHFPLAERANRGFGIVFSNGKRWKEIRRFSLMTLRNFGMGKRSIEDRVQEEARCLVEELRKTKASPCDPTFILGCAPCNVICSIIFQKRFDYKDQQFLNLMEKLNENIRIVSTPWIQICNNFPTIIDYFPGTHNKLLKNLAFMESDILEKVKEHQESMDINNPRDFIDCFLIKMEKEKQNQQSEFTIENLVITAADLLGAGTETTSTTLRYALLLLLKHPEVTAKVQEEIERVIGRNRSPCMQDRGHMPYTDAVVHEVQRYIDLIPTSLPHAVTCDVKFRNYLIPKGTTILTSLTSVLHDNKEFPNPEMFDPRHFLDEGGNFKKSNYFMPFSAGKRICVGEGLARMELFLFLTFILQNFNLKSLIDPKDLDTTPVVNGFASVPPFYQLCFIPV

CC1=CC2=NC(=O)/C(=C\c3c(C)[nH]c4ccc(C)cc34)C(=N)N2O1
IC50 [1]: > 100 µM (inactive)
IC50 [2]: 33.3 µM (active)
IC50 [3]: 32.1 µM (active)

C=CCOc1nc2c(c(=O)n(C)c(=O)n2C)n1Cc1ccc(Cl)cc1Cl
AC50 [4]: 7.4 µM (active)
IC50 [5]: 29.7 µM (inactive)
AC50 [6]: 2.15 µM (active)

CCOC(=O)c1ccc(NC(=O)c2cc3ccccc3o2)cc1
IC50 [7]: 7.74 µM (active)
IC50 [8]: 23.7 µM (active)
IC50 [9]: 5.71 µM (active)
IC50 [10]: > 100 µM (inactive)

COc1ccc(C2=NN(c3nc(-c4ccccc4)c(CC(=O)O)s3)C(c3ccco3)C2)cc1 (centres undefined)
IC50 [11]: 8.39 µM (active)
IC50 [12]: 6.5 µM (active)
IC50 [13]: 18.5 µM (active)

CSC[C@H](NC(=O)COc1cc2c(c3oc(=O)c(C)c(C)c13)CCC(C)(C)O2)C(=O)O
IC50 [14]: > 59.6 µM (inactive)
IC50 [15]: > 59.6 µM (inactive)
IC50 [16]: > 59.6 µM (inactive)

Cc1cc(/C=C2\SC(=S)NC2=O)c(C)n1C
AC50 [17]: 1.26 µM (inconclusive)
IC50 [1]: 15.2 µM (active)
AC50 [18]: 39.8 µM (inconclusive)
IC50 [2]: 16.5 µM (active)
IC50 [3]: 19.4 µM (active)
AC50 [19]: 25.1 µM (inconclusive)

CCOC(=O)c1c(NC(=O)COc2ncnc3ccccc23)sc(C(C)=O)c1C
IC50 [5]: 6.86 µM (active)

Cc1ccc([N+](=O)[O-])cc1S(=O)(=O)Nc1cccc(-c2ccc(N3CCCC3)nn2)c1
IC50 [11]: 17.7 µM (active)
CC50 [20]: 23 µM (active)
IC50 [13]: 39.2 µM (active)

C=C(c1cccc2ccccc12)P(=O)(O)O
IC50 [14]: > 59.6 µM (inactive)
IC50 [21]: 27 µM (not active)
IC50 [15]: > 59.6 µM (inactive)
IC50 [16]: > 59.6 µM (inactive)

S=c1[nH]nc(-c2ccccc2)n1CC1CCCO1 (centres undefined)
IC50 [14]: > 59.6 µM (inactive)
IC50 [15]: > 59.6 µM (inactive)
IC50 [16]: > 59.6 µM (inactive)

Cc1ccc(NC(=O)C(C)SCc2nc(O)c3c4c(sc3n2)CCCC4)nc1 (centres undefined)
IC50 [1]: > 100 µM (inactive)
IC50 [2]: 21.9 µM (active)
IC50 [3]: 17.2 µM (active)

O=C(c1ccc2c(=O)n(Cc3ccco3)c(=S)[nH]c2c1)N1CCN(Cc2ccccc2)CC1
IC50 [11]: 23.5 µM (active)
IC50 [13]: 57.7 µM (active)

Cc1cccc(C(=O)NC2CCN(CC(=O)Nc3ccccc3Cl)CC2)c1
AC50 [22]: 1.04 µM (active)

O=C(C[C@@H]1C[C@@H]2c3cc(NC(=O)c4cccnc4)ccc3O[C@@H]2[C@@H](CO)O1)NCc1cccc(F)c1
AC50 [22]: 5.98 µM (active)

O=C(Nc1ccc2c(c1)[C@H]1C[C@@H](CC(=O)N3CCc4ccccc4C3)O[C@H](CO)[C@H]1O2)c1cccnc1
AC50 [22]: 6.24 µM (active)

CCc1nc(N)nc(N)c1-c1ccc(N(C)Cc2ccccc2)c([N+](=O)[O-])c1
AC50 [23]: < 0.26 µM (active)
IC50 [5]: 5.28 µM (active)
AC50 [6]: < 0.26 µM (active)
